Measurements published in patent US20110251212A1, “PIPERAZINE DERIVATIVES” (SHIONOGI & CO., LTD., priority 2007, published 2011).
pIC50: −log10 of the molar value.

target: T1, mouse NMDA receptor (NR1 subunit and NR2B subunit co-expressed in HEK293 cells) (Mus musculus, UniProt P35438+Q01097); test: Expression of NMDA receptor and measurement of Ca ion flow in amount (HEK293 cells, Fluo-3/AM, FDSS3000); assay type: cell-based; details: Ca ion flow in induced with glutamic acid 20 μM/glycine 2 μM, read-out: Ca2+ 1050
T1 construct: expressed in transfected cells; host or cells: HEK293 cells, transient, pcDNA 3.1 plasmids
Procedure: Test Example 2 Expression of NMDA receptor and measurement of Ca ion flow in amount
A complementary DNA (cDNA) of a mouse NMDA receptor subunit was transiently introduced into HEK293 cells and, after one day from introduction, change in a glutamic acid/glycine-induced intracellular Ca amount was measured using a Ca ion reactive fluorescent dye.
HEK293 cells were cultured and passaged using a modified Dulbecco's Eagle medium (DMEM, low glucose).
20,000/well of HEK293 cells were seeded on a 96-well plate, a NR1 subunit and a NR2B subunit of a NMDA receptor incorporated into pcDNA 3.1 plasmid were transiently introduced into cells, and co-expression of subunits was performed. An introduction amount of a DNA was such that the NR1 subunit was 0.025 μg, and the NR2B subunit was 0.075 μg per well. For cells after introduction, cell death was inhibited using 50 μM of a NMDA receptor antagonist MK-801.
For adjusting a test compound and washing cells, Krebs Ringer Hepes buffer (KRH, Ca: 5 mM) was used.
One day after introduction, the NMDA receptor antagonist MK-801 was washed off using the KRH buffer, and a Ca ion indicative fluorescent dye Fluo-3/AM was made to be taken into cells. Flow in of a Ca ion was induced with glutamic acid 20 μM/glycine 2 μM. Change in a fluorescence amount due to intracellular Ca ion flow in was measured at excitation 480 nm using a fluorescence imaging system FDSS3000.
From a measured value of the test compound, a Ca ion flow in inhibitory rate (%) was obtained by the following equation, and a dose at which flow in is 50% inhibited (IC50) was calculated.
Ca ion flow in inhibitory rate(%)=100−[(fluorescence amount in presence of test compound−background fluorescence amount)/(total fluorescence amount[…]background fluorescence amount)]×100

T1 sequence (Q01097 27-1482, other chains not shown): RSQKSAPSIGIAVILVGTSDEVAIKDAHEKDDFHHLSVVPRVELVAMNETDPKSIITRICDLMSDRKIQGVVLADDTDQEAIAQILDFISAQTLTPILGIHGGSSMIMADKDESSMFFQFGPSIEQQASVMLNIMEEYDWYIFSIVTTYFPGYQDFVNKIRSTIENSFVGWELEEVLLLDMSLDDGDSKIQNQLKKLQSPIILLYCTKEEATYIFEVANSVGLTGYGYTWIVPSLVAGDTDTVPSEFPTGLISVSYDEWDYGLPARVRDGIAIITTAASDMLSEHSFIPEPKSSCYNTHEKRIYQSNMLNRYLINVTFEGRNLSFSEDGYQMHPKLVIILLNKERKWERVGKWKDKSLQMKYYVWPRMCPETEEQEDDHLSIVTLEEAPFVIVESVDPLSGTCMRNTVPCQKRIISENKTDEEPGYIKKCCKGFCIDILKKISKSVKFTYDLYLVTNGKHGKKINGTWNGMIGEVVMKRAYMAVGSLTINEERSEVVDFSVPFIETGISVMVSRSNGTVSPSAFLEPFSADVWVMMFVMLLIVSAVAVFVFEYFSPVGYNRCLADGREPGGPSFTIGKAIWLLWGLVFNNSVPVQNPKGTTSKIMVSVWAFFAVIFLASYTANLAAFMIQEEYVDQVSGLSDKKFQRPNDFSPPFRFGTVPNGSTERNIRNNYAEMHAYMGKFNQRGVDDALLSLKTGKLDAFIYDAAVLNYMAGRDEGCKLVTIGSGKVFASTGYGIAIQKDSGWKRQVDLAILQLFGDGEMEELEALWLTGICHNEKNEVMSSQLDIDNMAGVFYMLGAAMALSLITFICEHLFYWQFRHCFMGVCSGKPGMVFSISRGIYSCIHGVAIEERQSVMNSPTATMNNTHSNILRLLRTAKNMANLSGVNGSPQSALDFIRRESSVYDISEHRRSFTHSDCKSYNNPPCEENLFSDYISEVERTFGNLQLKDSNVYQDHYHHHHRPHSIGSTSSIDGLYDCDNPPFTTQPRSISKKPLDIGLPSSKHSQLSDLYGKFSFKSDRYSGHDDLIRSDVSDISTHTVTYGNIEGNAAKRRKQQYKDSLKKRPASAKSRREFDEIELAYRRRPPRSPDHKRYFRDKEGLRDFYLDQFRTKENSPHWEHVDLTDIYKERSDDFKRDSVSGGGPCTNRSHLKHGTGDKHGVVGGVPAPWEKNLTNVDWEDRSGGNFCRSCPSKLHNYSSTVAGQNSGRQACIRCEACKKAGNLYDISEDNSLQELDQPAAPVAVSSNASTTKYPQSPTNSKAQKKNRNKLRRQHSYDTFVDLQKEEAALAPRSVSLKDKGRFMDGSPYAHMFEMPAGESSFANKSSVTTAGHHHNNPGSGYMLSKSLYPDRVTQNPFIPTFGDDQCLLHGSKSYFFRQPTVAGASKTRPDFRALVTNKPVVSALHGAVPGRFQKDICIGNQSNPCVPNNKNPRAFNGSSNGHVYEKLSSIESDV

| pIC50 | SMILES |
| --- | --- |
| 8.15 | COc1c(F)cc(N2CCN(C(=O)CNc3ccc4[nH]c(=O)oc4c3)[C@H](C)C2)cc1F [Compound I-9] |
| 6.97 | O=C(Nc1ccc2[nH]c(=O)oc2c1)C(=O)N1CCN(c2cc(F)cc(F)c2)CC1 [Compound I-12] |
| 7.85 | C[C@@H]1CN(C(=O)C(=O)Nc2ccc3[nH]c(=O)oc3c2)CCN1c1cc(F)cc(F)c1 [Compound I-13] |
| 7.32 | C[C@@H]1CN(c2cc(F)cc(F)c2)CCN1C(=O)C(=O)Nc1ccc2[nH]c(=O)oc2c1 [Compound I-14] |
| 8.30 | C[C@@H]1CN(c2ccc(Cl)cc2)CCN1C(=O)CNc1ccc2[nH]c(=O)oc2c1 [Compound I-15] |
| 7.92 | C[C@@H]1CN(C(=O)CNc2ccc3[nH]c(=O)oc3c2)CCN1c1ccc(Cl)cc1 [Compound I-16] |
| 8.52 | C[C@@H]1CN(C(=O)CNc2ccc3[nH]c(=O)oc3c2)CCN1c1ccc(Cl)c(F)c1 [Compound I-17] |
| 7.32 | Cc1ccc(N2CCN(C(=O)C(=O)Nc3ccc4[nH]c(=O)oc4c3)CC2)cc1 [Compound I-18] |
| 7.39 | COCc1ccc(N2CCN(C(=O)C(=O)Nc3ccc4[nH]c(=O)oc4c3)C[C@H]2C)cc1 [Compound I-20] |
| 7.33 | O=C(Nc1ccc2[nH]c(=O)oc2c1)C(=O)N1CCN(c2ccc(OCC(F)(F)F)cc2)CC1 [Compound I-21] |
| 7.66 | Cc1ccc(N2CCN(C(=O)C(=O)Nc3ccc4[nH]c(=O)oc4c3)[C@H](C)C2)cc1 [Compound I-22] |
| 7.66 | C[C@@H]1CN(C(=O)C(=O)Nc2ccc3[nH]c(=O)oc3c2)CCN1c1ccc(OCC(F)(F)F)cc1 [Compound I-23] |
| 7.72 | C[C@@H]1CN(c2ccc(OCC(F)(F)F)cc2)CCN1C(=O)C(=O)Nc1ccc2[nH]c(=O)oc2c1 [Compound I-24] |
| 8.05 | C[C@@H]1CN(C(=O)C(=O)Nc2cnc3[nH]c(=O)oc3c2)CCN1c1ccc(OC(F)(F)F)cc1 [Compound I-25] |
| 8.15 | Cc1ccc(N2CCN(C(=O)C(=O)Nc3ccc4[nH]c(=O)oc4c3)CC2)cc1F [Compound I-26] |
| 8.70 | Cc1ccc(N2CCN(C(=O)C(=O)Nc3ccc4[nH]c(=O)oc4c3)[C@H](C)C2)cc1F [Compound I-27] |
| 8.52 | Cc1ccc(N2CCN(C(=O)C(=O)Nc3ccc4[nH]c(=O)oc4c3)C[C@H]2C)cc1F [Compound I-28] |
| 8.05 | Cc1ccc(N2CCN(C(=O)C(=O)Nc3ccc4[nH]c(=O)oc4c3)C[C@H]2C)cc1 [Compound I-29] |
| 7.51 | C[C@@H]1CN(C(=O)CNc2ccc3[nH]c(=O)oc3c2)CCN1c1ccc(OC(F)(F)F)cc1 [Compound I-30] |
| 6.97 | CO/N=C/c1ccc(N2CCN(C(=O)C(=O)Nc3ccc4[nH]c(=O)oc4c3)[C@H](C)C2)cc1 [Compound I-31] |
| 6.98 | COCc1ccc(N2CCN(C(=O)C(=O)Nc3ccc4[nH]c(=O)oc4c3)[C@H](C)C2)cc1 [Compound I-32] |
| 7.59 | COCc1ccc(N2CCN(C(=O)C(=O)Nc3ccc4[nH]c(=O)oc4c3)CC2)cc1F [Compound I-33] |
| 7.49 | COCc1ccc(N2CCN(C(=O)C(=O)Nc3ccc4[nH]c(=O)oc4c3)[C@H](C)C2)cc1F [Compound I-34] |

target: T2, NMDA Receptor (NR1/NR2B Receptor) (Rattus norvegicus, UniProt P35439+Q00960); test: Experiment of binding to NMDA receptor (NR1/NR2B receptor), [3H]-Ifenprodil competition, rat cerebral cortex membrane; details: [3H]-Ifenprodil 5 nM, GBR-12909 3 μM, ice temperature 120 minutes
T2 construct: this was used as a membrane specimen in an experiment; from tissue; host or cells: rat cerebral cortex membranes
Procedure: Using Ifenprodil which is a NR1/NR2B subtype receptor-specific antagonist as a ligand, an experiment of receptor competition with a test compound was performed.
A male Slc:Wistar rat was used as an animal, a decapitated brain was isolated, and cerebral cortex was fractionated. The cerebral cortex was homogenized with a 20-fold amount of an ice-cooled 50 mM Tris/HCl buffer (pH 7.4), and centrifuged at 4° C. and 27,500×g for 10 minutes. The resulting precipitate was suspended in the same buffer, and the suspension was centrifuged again. This procedure was repeated three times, and the resulting precipitate was suspended in a buffer, and stored at −80° C. Immediately before an experiment, the frozen suspension was thawed at room temperature, and centrifuged at 4° C. and 27,500×g for 10 minutes, and the resulting precipitate was suspended in a buffer. The suspension was further diluted 10-fold with a buffer, and this was used as a membrane specimen in an experiment.
In a binding experiment, to 470 μl of the membrane specimen were added 10 μl of different concentrations of a test compound, 10 μl of a labeled ligand [3H]-Ifenprodil and 10 μl of GBR-12909, and this was incubated at an ice temperature for 120 minutes. A concentration of [3H]-Ifenprodil of the labeled ligand was finally 5 nM, and a concentration of GBR-12909 was finally 3 μM. For measuring a total binding amount, DMSO as a solvent was used and, for measuring a non-specific binding amount, 100 μM of Ifenprodil was used. In addition, GBR-12909 was added in order to block binding of [3H]-Ifenprodil to a non-polyamine-sensitive site. After incubation, a bound body and a free body were separated using a Whatman GF/C filter (manufactured by Whatman), and the filter was washed with 2.5 ml of an ice-cooled buffer four times. The filter was immersed in a liquid scintillation (Clear-sol I, manufactured by Nacalai tesque) in a vial bottle, and radioactivity (dpm) was measured with a liquid scintillation counter. From a measured value, a binding inhibition rate (%) was obtained by the following equation, and a dose at which binding is inhibited 50% (IC50) was calculated. A formula of GBR-12909 (Vanoxerine) is shown below.
Binding inhibition rate(%)=100−[(binding amount in presence of test compound−non-specific amount)/(total binding amount−non-specific binding amount)]×100

T2 sequence (Q00960 27-1482, other chains not shown): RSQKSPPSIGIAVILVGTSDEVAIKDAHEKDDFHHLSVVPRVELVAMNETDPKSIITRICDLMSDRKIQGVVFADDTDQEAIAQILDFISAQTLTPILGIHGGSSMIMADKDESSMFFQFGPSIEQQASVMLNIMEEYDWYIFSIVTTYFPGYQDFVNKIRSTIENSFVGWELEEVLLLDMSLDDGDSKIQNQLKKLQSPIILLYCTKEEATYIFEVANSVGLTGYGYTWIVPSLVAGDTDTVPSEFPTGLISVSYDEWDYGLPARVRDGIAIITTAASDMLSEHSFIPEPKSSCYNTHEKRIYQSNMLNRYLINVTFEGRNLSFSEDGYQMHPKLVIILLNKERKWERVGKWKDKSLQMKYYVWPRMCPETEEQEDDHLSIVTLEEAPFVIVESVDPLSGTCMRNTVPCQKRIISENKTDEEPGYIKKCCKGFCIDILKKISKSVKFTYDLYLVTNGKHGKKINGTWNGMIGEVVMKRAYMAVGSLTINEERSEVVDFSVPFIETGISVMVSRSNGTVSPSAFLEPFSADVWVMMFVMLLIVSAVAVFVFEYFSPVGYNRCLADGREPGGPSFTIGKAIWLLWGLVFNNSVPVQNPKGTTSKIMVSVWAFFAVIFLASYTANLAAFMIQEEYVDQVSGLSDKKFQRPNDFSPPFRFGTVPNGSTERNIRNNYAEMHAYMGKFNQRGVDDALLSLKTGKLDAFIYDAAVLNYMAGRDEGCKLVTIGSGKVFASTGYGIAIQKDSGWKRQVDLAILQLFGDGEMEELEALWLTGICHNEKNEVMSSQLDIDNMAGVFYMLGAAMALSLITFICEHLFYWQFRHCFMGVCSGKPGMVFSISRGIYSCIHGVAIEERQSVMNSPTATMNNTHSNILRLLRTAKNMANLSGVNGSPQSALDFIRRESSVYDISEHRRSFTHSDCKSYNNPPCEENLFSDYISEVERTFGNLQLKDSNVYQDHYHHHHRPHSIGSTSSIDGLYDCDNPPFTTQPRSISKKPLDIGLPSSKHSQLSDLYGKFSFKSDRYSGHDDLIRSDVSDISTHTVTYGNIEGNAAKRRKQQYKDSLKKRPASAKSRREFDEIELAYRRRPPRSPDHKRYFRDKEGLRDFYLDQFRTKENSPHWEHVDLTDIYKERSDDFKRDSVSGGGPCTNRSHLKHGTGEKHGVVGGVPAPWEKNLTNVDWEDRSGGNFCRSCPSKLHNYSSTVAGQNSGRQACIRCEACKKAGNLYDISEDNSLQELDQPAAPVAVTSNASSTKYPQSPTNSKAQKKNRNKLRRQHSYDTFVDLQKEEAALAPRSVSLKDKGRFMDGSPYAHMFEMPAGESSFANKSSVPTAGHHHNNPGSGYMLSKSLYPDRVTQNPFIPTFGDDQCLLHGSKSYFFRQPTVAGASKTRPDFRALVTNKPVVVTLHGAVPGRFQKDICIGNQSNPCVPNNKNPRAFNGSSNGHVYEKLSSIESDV

| IC50 [µM] | SMILES |
| --- | --- |
| 0.031 | COc1c(F)cc(N2CCN(C(=O)CNc3ccc4[nH]c(=O)oc4c3)[C@H](C)C2)cc1F [Compound I-9] |
| 0.114 | C[C@@H]1CN(C(=O)C(=O)Nc2ccc3[nH]c(=O)oc3c2)CCN1c1cc(F)cc(F)c1 [Compound I-13] |
| 0.039 | C[C@@H]1CN(c2ccc(Cl)cc2)CCN1C(=O)CNc1ccc2[nH]c(=O)oc2c1 [Compound I-15] |
| 0.072 | C[C@@H]1CN(C(=O)CNc2ccc3[nH]c(=O)oc3c2)CCN1c1ccc(Cl)cc1 [Compound I-16] |
| 0.024 | C[C@@H]1CN(C(=O)CNc2ccc3[nH]c(=O)oc3c2)CCN1c1ccc(Cl)c(F)c1 [Compound I-17] |
| 0.107 | Cc1ccc(N2CCN(C(=O)C(=O)Nc3ccc4[nH]c(=O)oc4c3)CC2)cc1 [Compound I-18] |
| 0.085 | Cc1ccc(N2CCN(C(=O)C(=O)Nc3ccc4[nH]c(=O)oc4c3)[C@H](C)C2)cc1 [Compound I-22] |
| 0.105 | C[C@@H]1CN(c2ccc(OCC(F)(F)F)cc2)CCN1C(=O)C(=O)Nc1ccc2[nH]c(=O)oc2c1 [Compound I-24] |
| 0.014 | Cc1ccc(N2CCN(C(=O)C(=O)Nc3ccc4[nH]c(=O)oc4c3)CC2)cc1F [Compound I-26] |
| 0.035 | Cc1ccc(N2CCN(C(=O)C(=O)Nc3ccc4[nH]c(=O)oc4c3)[C@H](C)C2)cc1F [Compound I-27] |
| 0.068 | Cc1ccc(N2CCN(C(=O)C(=O)Nc3ccc4[nH]c(=O)oc4c3)C[C@H]2C)cc1F [Compound I-28] |
| 0.129 | Cc1ccc(N2CCN(C(=O)C(=O)Nc3ccc4[nH]c(=O)oc4c3)C[C@H]2C)cc1 [Compound I-29] |
| 0.059 | COCc1ccc(N2CCN(C(=O)C(=O)Nc3ccc4[nH]c(=O)oc4c3)CC2)cc1F [Compound I-33] |
| 0.099 | COCc1ccc(N2CCN(C(=O)C(=O)Nc3ccc4[nH]c(=O)oc4c3)[C@H](C)C2)cc1F [Compound I-34] |
